How the values were obtained:
[1] = test system: ELAM (E-selectin, CD62E) on HUVEC; assay: Cell-surface ELISA CD62E (E-selectin, ELAM) after TNFα stimulation; type: cell-based, human; settings: 10 µM; 30 min pre-treatment, then TNFα for 4 h
Experimental: TNFα stimulates NFκB (nuclear factor kappa-light-chain-enhancer of activated B cells) and thus E-selectin (CD62E, ELAM). Endothelial cells were pre-treated for 30 min with the tested compounds and then activated with TNFα for 4 h. Curcumin, which inhibits activation of NF-κB and thus inhibits expression and activity of the COX-2 gene induced by TNFα [21], was used as a positive control, decreasing ELAM production to 25% at 10 µM.
An enzyme-linked immunosorbent assay (ELISA) was used to detect the levels of the cell adhesion molecule ELAM in HUVEC cells after 30 min of incubation with the tested compounds and 4 h of stimulation with TNFα, as previously described.
the cell surface of endothelial cells that were pretreated with 10 µM compounds for 30 min and
subsequently stimulated with 10 ng/ml TNFα for 4 h. Data are means ± SDs ( n = 3).
(1 picture or pasted object on this page, not shown here)

[2] = test system: neuron-like SH-SY5Y cells; assay: Neuroprotection in 3-NPA-induced model of Huntington's disease, Calcein AM viability; type: cell-based, human; settings: 20 mM 3-NPA alone, 48 h

Compound | ELAM production (decreased to) [1] [%] | Decrease in cell viability [2]
COc1cc(/C=C/C(=O)CC(=O)/C=C/c2ccc(O)c(OC)c2)ccc1O [Curcumin] | 25 | –
O=C(O)CC[N+](=O)[O-] [Compound 3-NPA, 3-nitropropionic acid] | – | approx. 70%

— article PMC7763444, “Bioactive Steroids from the Red Sea Soft Coral Sinularia polydactyla” (Marine Drugs, 2020)
